Measured values reported in patent US10689705B2, “FGFR3 fusion gene and pharmaceutical drug targeting same” (Chugai Seiyaku Kabushiki Kaisha, priority 2012, dated 2020).
pIC50: −log10 of the molar value.

Tests used:
[1] = system: human bladder cancer cell line RT112/84; experiment: Antitumor effect in cancer-bearing nude mice (FGFR3-TACC3 fusion); assay type: in vivo, BALB/c nude mice; conditions: RT112/84 xenograft
Protocol: Nude mice were quarantined for about one week before use, and subjected to subcutaneous transplantation of about 1×10^7 RT112/84 cells in the inguinal region. When the tumor size reached about 200 mm^3, the mice were used in experiments.
Antitumor effect was determined by comparing the tumor growth during 11 days after the first day of administration (Day 10 when the first day of administration is set at Day 0) with that of the control group. Tumor growth inhibitory effect(TGI)=(1−[Average tumor growth level of treated group]/[Average tumor growth level of control group])×100(%)

[2] = system: RAT-2 cells that stably express FGFR3-BAIAP2L1; conditions: orally once daily from seven days after planting; concentration-dependent (FIG. 13)
UM-UC-14 = experiment: Cell proliferation inhibition, WST-8, four days (Example 3); assay type: cell-based; conditions: Homo sapiens, UMUC14, 96 h, mutated type FGFR, no fusion
Protocol: (§1) IC50 was calculated using the least-square method.

RT112/84 = experiment: as above; assay type: cell-based; conditions: Homo sapiens, RT112/84, 96 h, fusion polypeptide expressing
Protocol: as §1

HT-1376 = experiment: as above; assay type: cell-based; conditions: Homo sapiens, HT-1376, 96 h, does not express FGFR3
Protocol: as §1

SW780 = experiment: as above; assay type: cell-based; conditions: Homo sapiens, SW780, 96 h, fusion polypeptide expressing
Protocol: as §1

BFTC-905 = experiment: as above; assay type: cell-based; conditions: Homo sapiens, BFTC-905, 96 h, wild-type FGFR, no fusion
Protocol: as §1

RT4 = experiment: as above; assay type: cell-based; conditions: Homo sapiens, RT-4, 96 h, fusion polypeptide expressing
Protocol: as §1

[3] = system: human bladder cancer cell line SW780; experiment: Antitumor effect in cancer-bearing nude mice (FGFR3-BAIAP2L1 fusion); assay type: in vivo, BALB/c nude mice; conditions: SW780 xenograft
Protocol: Nude mice were quarantined for about one week before use, and subjected to subcutaneous transplantation of 5×10^6 SW780 cells in the inguinal region. When the tumor size reached about 200 mm^3, the mice were used in experiments. […] Antitumor effect was determined by comparing the tumor growth during 11 days after the first day of administration (Day 10 when the first day of administration is set at Day 0) with that of the control group. Tumor growth inhibitory effect(TGI)=(1−[Average tumor growth level of treated group]/[Average tumor growth level of control group])×100(%)

[4] = system: colon cancer-derived cell line HCT116; experiment: cells; conditions: Homo sapiens, HCT-116, 96 h, read-out: HCT116 (CRC) IC50;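 also: proliferation measured with WST-8, IC50 derived by least-squares fitting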
[5] = system: bladder cancer-derived cell line RT-4 which expresses an FGFR3-TACC3 fusion polypeptide; experiment: tissue or blood; conditions: Homo sapiens, 96 h, read-out: RT-4 (Bladder) IC50

| Structure (SMILES) | pIC50 (UM-UC-14) | pIC50 (RT112/84) | pIC50 (HT-1376) | pIC50 (SW780) | pIC50 (BFTC-905) | pIC50 (RT4) | pIC50 [4] | further results |
| --- | --- | --- | --- | --- | --- | --- | --- | --- |
| Cc1nc2ccc(-n3ncc(C(=O)c4cc5ccccc5[nH]4)c3N)cc2[nH]1 [COMPOUND A] | 6.96 | 7.74 | < 5.00 | 6.92 | < 5.00 | 6.46 | – | TGI AFTER 11 DAYS ([1]; 25 mg/kg orally once a day): 61%; TGI AFTER 11 DAYS ([1]; 50 mg/kg orally once a day): 86%; TGI AFTER 11 DAYS ([1]; 100 mg/kg orally once a day): 125%; tumor enlargement enhanced by the FGFR3-BAIAP2L1 fusion polypeptide [2]: significantly suppressed; TGI AFTER 11 DAYS ([3]; 25 mg/kg orally once a day): 47%; TGI AFTER 11 DAYS ([3]; 50 mg/kg orally once a day): 79%; TGI AFTER 11 DAYS ([3]; 100 mg/kg orally once a day): 111% |
| CCN(CC)CCCCNc1ncc2cc(-c3cc(OC)cc(OC)c3)c(NC(=O)NC(C)(C)C)nc2n1 [COMPOUND B, PD173074] | 8.00 | 7.85 | 4.96 | 7.16 | 4.85 | 6.74 | – | – |
| COc1cc(CCc2cc(NC(=O)c3ccc(N4C[C@@H](C)N[C@@H](C)C4)cc3)[nH]n2)cc(OC)c1 [COMPOUND C, AZD-4547] | 7.80 | 7.77 | 5.17 | 6.80 | 4.96 | 6.60 | – | – |
| CCN1CCN(c2ccc(Nc3cc(N(C)C(=O)Nc4c(Cl)c(OC)cc(OC)c4Cl)ncn3)cc2)CC1 [COMPOUND D, BGJ-398] | 7.77 | 7.74 | 5.00 | 5.96 | < 4.70 | 6.64 | – | – |
| COc1cc2c(Oc3ccc4[nH]c(C)cc4c3F)ncnc2cc1OCCCN1CCCC1 [COMPOUND E, cediranib] | 7.18 | 6.82 | 5.96 | 6.28 | 5.60 | 6.62 | – | – |
| CN1CCN(c2ccc3nc(-c4c(N)c5c(F)cccc5[nH]c4=O)[nH]c3c2)CC1 [COMPOUND F, dovitinib] | 7.12 | 6.89 | 6.21 | 6.24 | 5.55 | 6.60 | – | – |
| Cc1nc2ccc(-n3ncc(C(=O)c4cc5ccccc5[nH]4)c3N)cc2[nH]1 [Compound 49] | – | – | – | – | – | – | 4.89 | pIC50 [5]: 6.46 |
| Cc1nc2cc(-n3ncc(C(=O)c4cc5ccc(OCc6ccccc6)cc5[nH]4)c3N)ccc2[nH]1 [Compound 59] | – | – | – | – | – | – | 5.48 | – |
| Cc1nc2cc(-n3ncc(C(=O)c4cc5cc(C(=O)N6CCCC(F)(F)C6)ccc5[nH]4)c3N)ccc2[nH]1 [Compound 60] | – | – | – | – | – | – | 4.77 | – |
| Cc1nc2cc(-n3ncc(C(=O)c4cc5cc(SC(F)(F)F)ccc5[nH]4)c3N)ccc2[nH]1 [Compound 61] | – | – | – | – | – | – | 5.04 | – |
| Cc1nc2cc(-n3ncc(C(=O)c4cc5cc(F)c(C(F)(F)F)cc5[nH]4)c3N)ccc2[nH]1 [Compound 62] | – | – | – | – | – | – | 5.77 | – |
| C#Cc1cccc2[nH]c(C(=O)c3cnn(-c4ccc5[nH]c(C)nc5c4)c3N)cc12 [Compound 63] | – | – | – | – | – | – | 4.89 | – |
| Cc1nc2cc(-n3ncc(C(=O)c4cc5ccc(-c6ccc(F)cc6)cc5[nH]4)c3N)ccc2[nH]1 [Compound 64] | – | – | – | – | – | – | 5.92 | – |
| Cc1nc2cc(-n3ncc(C(=O)c4cc5cc(-n6ccnc6)ccc5[nH]4)c3N)ccc2[nH]1 [Compound 65] | – | – | – | – | – | – | 4.64 | – |
| Cc1nc2cc(-n3ncc(C(=O)c4cc5ccc(NS(C)(=O)=O)cc5[nH]4)c3N)ccc2[nH]1 [Compound 66] | – | – | – | – | – | – | < 4.30 | – |
| Cc1nc2cc(-n3ncc(C(=O)c4cc5ccc(OC6CCOCC6)cc5[nH]4)c3N)ccc2[nH]1 [Compound 67] | – | – | – | – | – | – | 5.14 | – |
| Cc1nc2cc(-n3ncc(C(=O)c4cc5cc(C(F)(F)F)ccc5[nH]4)c3N)ccc2[nH]1 [Compound 68] | – | – | – | – | – | – | < 5.70 | – |
| Cc1nc2cc(-n3ncc(C(=O)c4cc5cc(Oc6ccccc6)ccc5[nH]4)c3N)ccc2[nH]1 [Compound 69] | – | – | – | – | – | – | 5.37 | – |
| Cc1nc2cc(-n3ncc(C(=O)c4cc5cc(F)c(Br)cc5[nH]4)c3N)ccc2[nH]1 [Compound 70] | – | – | – | – | – | – | 5.05 | – |
| Cc1nc2cc(-n3ncc(C(=O)c4cc5cc(Cc6ccccc6)ccc5[nH]4)c3N)ccc2[nH]1 [Compound 71] | – | – | – | – | – | – | 5.42 | – |
